Experiments:
[1] = relative permittivity at zero frequency (dimensionless); wn = mass fraction of the nth substance listed; conditions: 100 kPa, Liquid, time-domain reflectometry
[2] = relative permittivity at zero frequency (dimensionless); conditions: 100 kPa, Liquid, time-domain reflectometry

C[S+](C)[O-] [dimethyl sulfoxide] + OC[C@@H](O)[C@@H](O)CO
[1], w2 = 0
Conditions	relative permittivity at zero frequency
283.15 K	50.58
288.15 K	49.42
293.15 K	47.81
298.15 K	47.3

C[S+](C)[O-] [dimethyl sulfoxide] + OC[C@@H](O)[C@H](O)[C@@H](O)CO
[1], w2 = 0
Conditions	relative permittivity at zero frequency
283.15 K	50.58
288.15 K	49.42
293.15 K	47.81
298.15 K	47.3

C[S+](C)[O-] [dimethyl sulfoxide]
[2]
Conditions	relative permittivity at zero frequency
283.15 K	50.58
288.15 K	49.42
293.15 K	47.81
298.15 K	47.3

OC[C@@H](O)[C@@H](O)CO [meso-1,2,3,4-butanetetrol] + C[S+](C)[O-]
relative permittivity at zero frequency, [1]
Conditions	w1 = 0.05	w1 = 0.1	w1 = 0.15	w1 = 0.2	w1 = 0.25
283.15 K	51.26	54.06	55.7	57.23	58.96
288.15 K	50.01	51.84	52.87	54.96	55.78
293.15 K	48.57	50.49	51.35	53.36	54.3
298.15 K	47.78	48.96	50.43	52.23	52.77

C[S+](C)[O-] [dimethyl sulfoxide] + OC[C@@H](O)[C@@H](O)[C@H](O)[C@H](O)CO
[1], w2 = 0
Conditions	relative permittivity at zero frequency
283.15 K	50.58
288.15 K	49.42
293.15 K	47.81
298.15 K	47.3

OC[C@@H](O)[C@@H](O)[C@H](O)[C@H](O)CO [mannitol] + C[S+](C)[O-]
relative permittivity at zero frequency, [1]
Conditions	283.15 K	288.15 K	293.15 K	298.15 K
w1 = 0.05	52.35	50.82	49.49	48.89
w1 = 0.1	55.31	52.92	51.48	50.27
w1 = 0.15	56.79	55.37	53.15	52.18

OC[C@@H](O)[C@H](O)[C@@H](O)CO [xylitol] + C[S+](C)[O-]
relative permittivity at zero frequency, [1]
Conditions	w1 = 0.05	w1 = 0.1	w1 = 0.15	w1 = 0.2	w1 = 0.25
283.15 K	52.53	53.28	56.35	58.46	58.08
288.15 K	50.33	51.31	53.72	55.28	55.18
293.15 K	49.39	50.11	52.45	53.97	54.23
298.15 K	48.1	49.63	51.6	53.03	53.69

From the NIST ThermoML archive (doi:10.1016/j.tca.2017.03.018)
